This series can be described thus: TGA of the product prepared in example 6. Conditions: up to 150° C. It is filed as physicochemical. An excerpt:
The product prepared in example 6 was investigated by TGA.

Results on one compound are retold here after patent US12522585B2, “Method for preparing 2-chloro-n-(1-cyanocyclopropyl)-5-[2′-methyl-5′-(pentafluoroethyl)-4′-(trifluoromethyl)-2′h-1,3′-bipyrazol-4-yl]benzamide” ([…], priority 2020, dated 2026).

Each structure is given as a SMILES string.

Take `Cn1nc(C(F)(F)C(F)(F)F)c(C(F)(F)F)c1-n1cc(-c2ccc(Cl)c(C(=O)NC3(C#N)CC3)c2)cn1` [example 6, 2-chloro-N-(1-cyanocyclopropyl)-5-[2′-methyl-5′-(pentafluoroethyl)-4′-(trifluoromethyl)-2′H-1,3′-bipyrazol-4-yl]benzamide]: the “loss of mass (TGA)” value was “no loss of mass”.
